{"source": "paper PMC8157947", "about": "“Peptidic boronic acids are potent cell-permeable inhibitors of the malaria parasite egress serine protease SUB1” (Proceedings of the National Academy of Sciences of the …, 2021)", "key": {"[1]": {"molecular_target": "T1, recombinant PfSUB1 (rPfSUB1) (Plasmodium falciparum, UniProt Q8I0V0)", "T1 construct": "Chymotrypsin-treated rPfSUB1 (expressed and purified as described previously); made in house", "T1 sequence (Q8I0V0 218-688)": "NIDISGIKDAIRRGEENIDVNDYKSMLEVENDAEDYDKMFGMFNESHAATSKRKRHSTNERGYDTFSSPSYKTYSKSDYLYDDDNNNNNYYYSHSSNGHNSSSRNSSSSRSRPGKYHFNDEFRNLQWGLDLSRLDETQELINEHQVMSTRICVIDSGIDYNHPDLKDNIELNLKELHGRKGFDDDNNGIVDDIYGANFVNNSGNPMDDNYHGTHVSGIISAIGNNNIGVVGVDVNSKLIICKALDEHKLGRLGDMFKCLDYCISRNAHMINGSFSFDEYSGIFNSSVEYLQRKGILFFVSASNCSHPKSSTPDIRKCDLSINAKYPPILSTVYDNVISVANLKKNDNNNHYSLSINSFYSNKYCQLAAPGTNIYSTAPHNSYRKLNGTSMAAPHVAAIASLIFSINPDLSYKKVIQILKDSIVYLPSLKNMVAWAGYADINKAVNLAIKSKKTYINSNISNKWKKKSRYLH", "experiment": "rPfSUB1 fluorogenic peptide substrate cleavage inhibition assay", "assay_type": "biochemical", "source_text": "We previously described the development of a fluorescence-based in vitro assay suitable for the evaluation of substrate-based PfSUB1 inhibitors, using recombinant PfSUB1 (rPfSUB1) and fluorogenic peptide substrates based on cleavage sites within endogenous protein substrates of PfSUB1 ([13], [21]). […] This was perhaps unsurprising due to the high molecular mass and polar nature of these compounds, including the presence of a carboxylic acid moiety that was designed to mimic endogenous PfSUB1 protein substrates by interacting with the basic S’ surface of the PfSUB1 active-site cleft ([16]). Collectively, these features likely rendered the compounds poorly membrane penetrant.\nFluorescence of this peptide is quenched by rhodamine dimerization in the intact substrate but increases upon cleavage at the internal Q-D bond. Chymotrypsin-treated rPfSUB1 (expressed and purified as described previously ([16]) was stored at −80 °C as a 228 U/mL stock in 20 mM Tris–HCl pH 8.2, 150 mM NaCl, 10% glycerol, and diluted for use (1:500 or 1:600) in reaction buffer (20 mM Tris–HCl pH 8.2, 150 mM NaCl, 12 mM CaCl2, 25 mM CHAPS). Peptidic boronic acid inhibitors were dissolved in 100% DMSO at 10 or 20 mM, then further diluted in DMSO to generate stock solutions ranging from 500 to 0.01 μM and then used diluted 1:100 in the enzyme reactions. All reactions were performed in wells of white 96-well microwell plates (Nunc); 50 μL diluted rPfSUB1 was preincubated for 5 min with 1 μL each of the serially diluted boronic acid inhibitors, followed by addition of 50 μL substrate solution (0.1 μM final). Subsequent fluorescence increase was continuously monitored using a SpectraMax M5e plate reader and SoftMax Pro-6.3 software, with readings taken every 5 min for 60 min using excitation and emission values of 552 and 580 nm, respectively. […] All experiments were performed in duplicate."}, "[2]": {"system": "asexual blood-stage P. falciparum (clone 3D7)", "parameters": "method as in PMID 22543039, PMID 25129616", "details": "earlier work; cited from earlier work"}, "[3]": {"molecular_target": "T1, recombinant PfSUB1 (rPfSUB1)", "details": "cited from earlier work"}, "[4]": {"system": "asexual blood-stage P. falciparum (clone 3D7)", "experiment": "SYBR Green I parasite growth assay", "assay_type": "cell-based, Plasmodium falciparum", "details": "for EC50: Plasmodium falciparum, 3D7, 96 h, two erythrocytic growth cycles, SYBR Green I", "procedure": "The impact of the peptidic boronic acids on replication of asexual blood-stage P. falciparum (clone 3D7) was assessed using a SYBR Green I assay, essentially as described by Smilkstein et al. ([22]). Briefly, test compounds (dissolved in dimethyl sulfoxide [DMSO] at concentrations ranging from 4 mM to 5 μM) were added in triplicate to wells of flat bottomed, 96-well microtitre plates (1 μL per well). Wells were then supplemented with 100 μL per well of a P. falciparum parasite culture at 0.1% parasitaemia, 1% hematocrit. Each assay plate also included DMSO-only control wells (1% vol/vol), as well as additional control wells containing uninfected RBCs only. Plates were incubated in sealed, humidified gassed chambers at 37 °C for 96 h to allow the parasites to undergo two entire cycles of erythrocytic growth. Wells were then supplemented with 100 μL 1:5,000 dilution of stock SYBR Green I (Life Technologies, catalog no. S7563) diluted in 20 mM Tris HCl pH 7.5, 5 mM EDTA, 0.008% (weight/vol) saponin, 0.08% (vol/vol) Triton ×100. Plates were agitated to mix, incubated for a further 1 h in the dark at room temperature, then 150 μL samples from each well transferred to a fresh white microwell plate and fluorescence quantified using a SpectraMax M5e plate reader and SoftMax Pro-6.3 software (Ex 485 nm/Em 530 nm). IC50 values were determined from dose–response curves obtained after subtracting background fluorescence values (obtained from the RBC-only wells) from all experimental readings."}, "[5]": {"system": "P. falciparum schizonts", "experiment": "Ring formation after pretreatment of schizonts and washout", "assay_type": "cell-based, Plasmodium falciparum", "details": "pretreated schizonts washed, fresh RBCs, assessed at 24 h; 3j 10 μM, C2 1 μM", "procedure": "(§1) Short-term egress, invasion, and washout assays were performed essentially as described previously ([27], [28], [42]). Briefly, highly synchronous mature Percoll-enriched schizonts with or without added fresh RBCs (∼5% parasitaemia final) were incubated with compounds under test or vehicle only (DMSO, 1% vol/vol). For washout assays, schizonts were treated with C2 or various concentrations of inhibitor 3j for 1 to 4 h, then washed extensively (at least four times) prior to addition to fresh RBCs where required. After incubation at 37 °C for just 1 to 4 h (or overnight for invasion assays) to allow schizont rupture, cells were pelleted. Clarified culture supernatants were assessed for extent of hemoglobin release (a measure of schizont rupture) by absorption spectroscopy at 415 nm as described previously ([28]) or analyzed by Western blot using antibodies against SERA5 ([7], [11]). To quantify generation of new rings, samples of the cultures were fixed with 4% paraformaldehyde/0.02% glutaraldehyde and stained with SYBR Green I (Life Technologies) and then analyzed by flow cytometry on a BD FACSVerse using BD FACSuite software. Data were analyzed using FlowJo software. All cultures were also routinely analyzed by microscopic examination of Giemsa-stained thin films to visually assess parasite morphology."}, "[6]": {"system": "P. falciparum schizonts expressing EXP2-mNeonGreen", "experiment": "Time-lapse video microscopy of egress after compound washout", "assay_type": "cell-based, Plasmodium falciparum", "details": "1 μM"}, "[7]": {"system": "PfSUB1-mediated proteolytic processing of SERA5", "experiment": "Western blot of SERA5 processing after washout", "assay_type": "cell-based, Plasmodium falciparum", "details": "4 h pretreatment then washout", "source_text": "To seek unambiguous confirmation that PfSUB1 is the intracellular target of compound 3j, we examined the effects of the compound on the PfSUB1-mediated proteolytic processing of the established endogenous PfSUB1 substrate SERA5, an abundant parasite PV protein that only becomes accessible to cleavage upon discharge of PfSUB1 into the PV in the minutes leading up to egress and is then released in a processed form into culture supernatants ([6], [11], [12]). […] It was concluded that compound 3j prevents egress and parasite proliferation through direct inhibition of intracellular PfSUB1.\nShort-term egress, invasion, and washout assays were performed essentially as described previously ([27], [28], [42]). […] Clarified culture supernatants were assessed for extent of hemoglobin release (a measure of schizont rupture) by absorption spectroscopy at 415 nm as described previously ([28]) or analyzed by Western blot using antibodies against SERA5 ([7], [11]). To quantify generation of new rings, samples of the cultures were fixed with 4% paraformaldehyde/0.02% glutaraldehyde and stained with SYBR Green I (Life Technologies) and then analyzed by flow cytometry on a BD FACSVerse using BD FACSuite software. Data were analyzed using FlowJo software. All cultures were also routinely analyzed by microscopic examination of Giemsa-stained thin films to visually assess parasite morphology."}, "[8]": {"parameters": "method as in PMID 30117017", "details": "cited from earlier work"}, "[9]": {"system": "P. falciparum 3D7 schizonts", "experiment": "Short-term egress/invasion assay, ring formation by flow cytometry", "assay_type": "cell-based, Plasmodium falciparum", "details": "for EC50: Plasmodium falciparum, mature 3D7 schizonts with RBCs, 4 h, flow cytometry", "procedure": "For this, P. falciparum cultures containing synchronous, highly mature schizonts were supplemented with compounds 3b, 3e, 3i, and 3j at a range of dilutions, then allowed to undergo egress and invasion for just 4 h in the continued presence of the compounds, before assessing formation of newly invaded “ring” stage parasites by flow cytometry.\nas §1"}, "[10]": {"details": "fluorogenic peptide substrate, mean ± SD of at least three measurements, read-out: IC50 (nM) (rPfSUB1)"}}, "note": "Where “and” joins values, the source holds several entries; their conditions need not be identical. Equal values may be shown once. Entries after “also recorded” stand apart in the source; their conditions may differ. Read-outs that look alike come from different tables or passages of the source."}
{"compound": "CC(=O)N[C@H](C(=O)N[C@H](C(=O)NCC(=O)N[C@H]1CCC(=O)OB1O)[C@@H](C)O)C1CCCC1", "note": "[3g]", "values": [{"measurement": "IC50", "setting": "[1]; [10]", "value": "18.7 ± 1.3", "unit": "nM"}]}
{"compound": "CC(=O)N[C@H](C(=O)N[C@H](C(=O)NCC(=O)NC(C)C(=O)C(=O)NCCC(=O)O)[C@@H](C)O)C(C)C", "note": "(stereo partly shown) [compound 1]", "values": [{"measurement": "antiparasite activity in vitro / parasite growth assay", "setting": "[2]", "value": "no antiparasite activity in vitro; also recorded: no activity in parasite growth assay"}, {"measurement": "IC50", "setting": "[3]; Table S1", "value": "900 ± 200", "unit": "nM"}, {"measurement": "IC50", "setting": "[3]; earlier work", "value": "~900", "unit": "nM"}]}
{"compound": "CCC(C)[C@H](NC(C)=O)C(=O)N[C@H](C(=O)NCC(=O)N[C@@H](C)B(O)O)[C@@H](C)O", "note": "(stereo partly shown) [3a]", "values": [{"measurement": "IC50", "setting": "[1]; [10]", "value": "69.4 ± 1.2", "unit": "nM"}, {"measurement": "EC50", "setting": "[4]", "value": "1.8 ± 0.6", "unit": "µM"}]}
{"compound": "CC(=O)N[C@H](C(=O)N[C@H](C(=O)NCC(=O)NC(B(O)O)c1ccccc1)[C@@H](C)O)C1CCCC1", "note": "(stereo partly shown) [3h]", "values": [{"measurement": "IC50", "setting": "[1]; [10]", "value": "112 ± 2.3", "unit": "nM"}]}
{"compound": "CN(C)Cc1ccn2c(-c3ccnc(N)n3)c(-c3ccc(F)cc3)nc2c1", "note": "[C2, 4-[7-[(dimethylamino)methyl]-2-(4-fluorphenyl)imidazo[1,2-α]pyridine-3-yl]pyrimidin-2-amine, reference compound]", "values": [{"measurement": "ring production after washout", "setting": "[5]", "value": "produced rings efficiently"}, {"measurement": "time of egress initiation following washout", "setting": "[6]", "value": "~6.5", "unit": "min"}, {"measurement": "SERA5 proteolytic processing", "setting": "[7]", "value": "blocked"}]}
{"compound": "CC(=O)N[C@H](C(=O)N[C@H](C(=O)NCC(=O)N[C@H]1CCCOB1O)[C@@H](C)O)C1CCCC1", "note": "[3f]", "values": [{"measurement": "IC50", "setting": "[1]; [10]", "value": "204 ± 7.5", "unit": "nM"}]}
{"compound": "CC(C)C[C@H](NC(=O)CNC(=O)c1cc(Cl)ccc1Cl)B(O)O", "note": "[ixazomib]", "values": [{"measurement": "terminal half-life", "setting": "[8]", "value": "~228", "unit": "h"}]}
{"compound": "CC(=O)N[C@H](C(=O)N[C@H](C(=O)NCC(=O)N[C@H]1CCOB1O)[C@@H](C)O)C1CCCC1", "note": "[3e]", "values": [{"measurement": "EC50", "setting": "[9]", "value": "15700 ± 2500", "unit": "nM"}, {"measurement": "IC50", "setting": "[1]; [10]", "value": "4.6 ± 0.1", "unit": "nM"}, {"measurement": "EC50", "setting": "[4]", "value": "15 ± 3.6", "unit": "µM"}]}
{"compound": "CC(=O)N[C@H](C(=O)N[C@H](C(=O)NCC(=O)NCB(O)O)[C@@H](C)O)C1CCCC1", "note": "[3d]", "values": [{"measurement": "IC50", "setting": "[1]; [10]", "value": "54.3 ± 1.1", "unit": "nM"}, {"measurement": "EC50", "setting": "[4]", "value": "1.9 ± 0.4", "unit": "µM"}]}
{"compound": "CC(=O)N[C@H](C(=O)N[C@H](C(=O)NCC(=O)N[C@H](C)B(O)O)[C@@H](C)O)C1CCCC1", "note": "[3c]", "values": [{"measurement": "IC50", "setting": "[1]; [10]", "value": "60.1 ± 2.1", "unit": "nM"}, {"measurement": "EC50", "setting": "[4]", "value": "18.4 ± 1.8", "unit": "µM"}]}
{"compound": "CC(=O)N[C@H](C(=O)N[C@H](C(=O)NCC(=O)NC(C)C(=O)C(=O)NCCC(=O)O)[C@@H](C)O)C1CCCC1", "note": "(stereo partly shown) [2a]", "values": [{"measurement": "IC50", "setting": "[1]; IC50(PfSUB1), Fig. 1", "value": 400, "unit": "nM"}, {"measurement": "IC50", "setting": "[1]; IC50 (nM) (rPfSUB1), fluorogenic peptide substrate, mean ± SD of at least three measurements", "value": "~370 nM and 370 nM"}, {"measurement": "inhibition at 10 µM", "setting": "[1]; read-out: degree of rPfSUB1 inhibition at 10 µM (%)", "value": 97, "unit": "%"}, {"measurement": "activity in parasite growth assay", "setting": "[4]", "value": "no activity in parasite growth assay"}]}
{"compound": "CC(=O)NC(C(=O)NC(C(=O)NCC(=O)NC(C)B(O)O)C(C)O)C1CCCC1", "note": "(stereo not shown) [3b]", "values": [{"measurement": "EC50", "setting": "[9]", "value": "12700 ± 800", "unit": "nM"}, {"measurement": "IC50", "setting": "[1]; [10]", "value": "9.3 ± 0.5", "unit": "nM"}, {"measurement": "EC50", "setting": "[4]", "value": "2.3 ± 1.4", "unit": "µM"}]}
{"compound": "CC(=O)N[C@H](C(=O)N[C@@H](C)C(=O)NCC(=O)N[C@@H](C)B(O)O)C1CCCC1", "note": "[3i]", "values": [{"measurement": "schizont phenotype in Giemsa-stained thin films", "setting": "[9]; 10 μM, 4 h incubation", "value": "arrest of unruptured schizonts with no ring formation"}, {"measurement": "EC50", "setting": "[9]", "value": "2000 ± 100", "unit": "nM"}, {"measurement": "IC50", "setting": "[1]; [10]", "value": "~7.8 nM and 7.8 nM"}, {"measurement": "EC50", "setting": "[4]", "value": "0.34 ± 0.08", "unit": "µM"}, {"measurement": "improved growth inhibitory potency", "setting": "[4]; relative to compound 3b", "value": "~10", "unit": "fold"}]}
